Results as given in patent US11865126B2, “Method for treating anxiety disorders, headache disorders, and eating disorders with psilocybin” (priority 2019, dated 2024).

Columns and labels:
female Wistar rats = test: Binge eating model: chow, chocolate and total food intake; details: across the whole study
[1] = system: subjects with chronic cluster headaches (CCH); test: Chronic cluster headaches study (headache logs); format: in vivo, human; details: 0.14 mg/kg perorally x3; same subject
From the text: The study took place over a 10 week period which consisted of a baseline observation period, 3 psilocybin sessions, and a follow-up period in subjects with CCH (FIG. 27). Throughout the course of the study, subjects completed questionnaires and headache logs in order to access headache frequency, duration, and severity.
Before the beginning of the study, subjects taking prophylactic medication underwent a 2 week wash-out period to eliminate medication. Subjects then began a baseline observation period lasting 4 weeks during which the subjects received a functional MRI (magnetic resonance imaging) scan. After the observation period, subjects were perorally administered their first dose of 0.14 mg/kg psilocybin. Blood samples were collected during the initial dosing session to establish psilocin plasma concentrations. Over the next two weeks, subjects were administered two additional doses of psilocybin with each dose administered one week apart. The last psilocybin dose was followed by 4 weeks of observation that included a functional MRI scan one week after the last psilocybin dose. Subjects were also contacted 6 and 12 months after the last psilocybin dose to gain information about the duration of potential remission periods. All regular acute treatments were permitted during the study period and recorded in the headache diary. […]

healthy subjects = test: Symptom Checklist-90 item (SCL-90); format: in vivo, human
From the text: In some embodiments, the Symptom Checklist-90 item (SCL-90) questionnaire is used to evaluate the safety and/or efficacy of psilocybin. The SCL-90 is a relatively brief self-report psychometric instrument designed to evaluate a broad range of psychological problems and symptoms of psychopathology. In some embodiments, the SCL-90 is used to assess somatization, obsessive-compulsive behaviors, interpersonal sensitivity, depression, anxiety, hostility, phobic anxiety, paranoid ideation, and psychoticism of a subject treated according to the methods of the disclosure. The 90 items in the questionnaire are scored on a 5-point Likert scale, indicating the rate of occurrence of the symptom during the time reference. In some embodiments, after treating according to the methods of the disclosure, a subject's SCL-90 score decreases by about 5% to about 100%, for example, by about 5%, about 10%, about 15%, about 20%, about 25%, about 30%, about 35%, about 40%, about 45%, about 50%, about 55%, about 60%, about 65%, about 70%, about 75%, about 80%, about 85%, about 90%, about 95%, or about 100%.
The Neuroticism Extraversion Openness-Five Factor Inventory (NEO-FFI) and Symptom Checklist-90 Item (SCL-90) were administered. Details of the MMRM applied to the change from baseline scores for the NEO-FFI and SCL-90 are provided below in Table 28.

[2] = Binge eating model: body weight; details: 1, 3 and 10 mg/kg IP

## CN(C)CCc1c[nH]c2cccc(OP(=O)(O)O)c12 [psilocybin]
Female Wistar rats
  Food intake over the 24 hour period (normal feeding behaviour): not significantly altered
[1]
  Cluster headache with pain greater than normal: at least one very painful cluster headache
Healthy subjects; Day 7
  SCL-90 - somatisation change from baseline, difference Psilocybin 10 mg - Placebo: 0.1
  SCL-90 - somatisation change from baseline, difference Psilocybin 25 mg - Placebo: 0.1
  SCL-90 - somatisation change from baseline, difference Psilocybin (25 mg-10 mg): −0.0
  SCL-90 anger hostility change from baseline, difference Psilocybin 10 mg - Placebo: −0.0
  SCL-90 anger hostility change from baseline, difference Psilocybin 25 mg - Placebo: −0.0
  SCL-90 anger hostility change from baseline, difference Psilocybin (25 mg-10 mg): 0.0
  SCL-90 anxiety change from baseline, difference Psilocybin 10 mg - Placebo: −0.0
  SCL-90 anxiety change from baseline, difference Psilocybin 25 mg - Placebo: 0.0
  SCL-90 anxiety change from baseline, difference Psilocybin (25 mg-10 mg): 0.0
  SCL-90 depression change from baseline, difference Psilocybin 10 mg - Placebo: 0.0
  SCL-90 depression change from baseline, difference Psilocybin 25 mg - Placebo: 0.0
  SCL-90 depression change from baseline, difference Psilocybin (25 mg-10 mg): −0.0
  SCL-90 interpersonal sensitivity change from baseline, difference Psilocybin 10 mg - Placebo: −0.0
  SCL-90 interpersonal sensitivity change from baseline, difference Psilocybin 25 mg - Placebo: 0.0
  SCL-90 interpersonal sensitivity change from baseline, difference Psilocybin (25 mg-10 mg): 0.1
  SCL-90 obsessive compulsive change from baseline, difference Psilocybin 10 mg - Placebo: 0.1
  SCL-90 obsessive compulsive change from baseline, difference Psilocybin 25 mg - Placebo: 0.1
  SCL-90 obsessive compulsive change from baseline, difference Psilocybin (25 mg-10 mg): −0.0
  SCL-90 paranoid ideation change from baseline, difference Psilocybin 10 mg - Placebo: 0.0
  SCL-90 paranoid ideation change from baseline, difference Psilocybin 25 mg - Placebo: 0.1
  SCL-90 paranoid ideation change from baseline, difference Psilocybin (25 mg-10 mg): 0.1
  SCL-90 phobic anxiety change from baseline, difference Psilocybin 10 mg - Placebo: −0.0
  SCL-90 phobic anxiety change from baseline, difference Psilocybin 25 mg - Placebo: 0.0
  SCL-90 phobic anxiety change from baseline, difference Psilocybin (25 mg-10 mg): 0.0
  SCL-90 psychoticism change from baseline, difference Psilocybin 10 mg - Placebo: 0.0
  SCL-90 psychoticism change from baseline, difference Psilocybin 25 mg - Placebo: 0.0
  SCL-90 psychoticism change from baseline, difference Psilocybin (25 mg-10 mg): 0.0
Healthy subjects; Day 84
  SCL-90 - somatisation change from baseline, difference Psilocybin 10 mg - Placebo: 0.0
  SCL-90 - somatisation change from baseline, difference Psilocybin 25 mg - Placebo: 0.0
  SCL-90 - somatisation change from baseline, difference Psilocybin (25 mg-10 mg): 0.0
  SCL-90 anger hostility change from baseline, difference Psilocybin 10 mg - Placebo: −0.0
  SCL-90 anger hostility change from baseline, difference Psilocybin 25 mg - Placebo: −0.0
  SCL-90 anger hostility change from baseline, difference Psilocybin (25 mg-10 mg): −0.0
  SCL-90 anxiety change from baseline, difference Psilocybin 10 mg - Placebo: −0.1
  SCL-90 anxiety change from baseline, difference Psilocybin 25 mg - Placebo: −0.0
  SCL-90 anxiety change from baseline, difference Psilocybin (25 mg-10 mg): 0.0
  SCL-90 depression change from baseline, difference Psilocybin 10 mg - Placebo: 0.0
  SCL-90 depression change from baseline, difference Psilocybin 25 mg - Placebo: 0.0
  SCL-90 depression change from baseline, difference Psilocybin (25 mg-10 mg): 0.0
  SCL-90 interpersonal sensitivity change from baseline, difference Psilocybin 10 mg - Placebo: −0.1
  SCL-90 interpersonal sensitivity change from baseline, difference Psilocybin 25 mg - Placebo: −0.0
  SCL-90 interpersonal sensitivity change from baseline, difference Psilocybin (25 mg-10 mg): 0.0
  SCL-90 obsessive compulsive change from baseline, difference Psilocybin 10 mg - Placebo: 0.1
  SCL-90 obsessive compulsive change from baseline, difference Psilocybin 25 mg - Placebo: 0.0
  SCL-90 obsessive compulsive change from baseline, difference Psilocybin (25 mg-10 mg): −0.1
  SCL-90 paranoid ideation change from baseline, difference Psilocybin 10 mg - Placebo: 0.1
  SCL-90 paranoid ideation change from baseline, difference Psilocybin 25 mg - Placebo: 0.1
  SCL-90 paranoid ideation change from baseline, difference Psilocybin (25 mg-10 mg): 0.0
  SCL-90 phobic anxiety change from baseline, difference Psilocybin 10 mg - Placebo: −0.0
  SCL-90 phobic anxiety change from baseline, difference Psilocybin 25 mg - Placebo: 0.0
  SCL-90 phobic anxiety change from baseline, difference Psilocybin (25 mg-10 mg): 0.0
  SCL-90 psychoticism change from baseline, difference Psilocybin 10 mg - Placebo: −0.0
  SCL-90 psychoticism change from baseline, difference Psilocybin 25 mg - Placebo: −0.0
  SCL-90 psychoticism change from baseline, difference Psilocybin (25 mg-10 mg): 0.0
[2]
  Overall body weight: not affected
